Test results published in paper PMC8151276, “An Integrated Approach toward NanoBRET Tracers for Analysis of GPCR Ligand Engagement” (Molecules, 2021).

Target: T1, DRD2 (Homo sapiens, UniProt P14416)
T1 construct: purchased Promega (in-house HiBiT-GPCR construct library, NanoBRET)
Assay: NanoBRET screen HiBiT-DRD2 in HEK293
Format: binding
Experimental: Each tracer candidate was screened across the entire library of HiBiT-GPCR constructs using NanoBRET as the detection modality. As depicted in Figure 4A, the specificity of interactions was evaluated through decrease in BRET due to competitive displacement of a bound tracer by excess parental compound. Each tracer was analyzed for binding to each HiBiT-GPCR fusion in the absence and in the presence of competing parental compound. Briefly, HEK293 cells were transfected with HiBiT-GPCR constructs diluted into promoterless DNA to reduce expression and maximize translocation to the cell surface. Each tracer candidate was then screened at concentrations of 1 μM and 0.1 μM across cells expressing these fusions. Cells were treated for 1.5 h with tracer either alone or in the presence of 20 μM competing parental compound (i.e., control). BRET was measured upon addition of purified LgBiT and subsequent complementation with HiBiT genetically fused to a GPCR. The specificity of interactions was assessed through a decrease in BRET signal due to competitive displacement of the bound tracer. To further gauge the robustness of these interactions, the fold response over the control (i.e., BRETtracer/BRETcontrol) was calculated. We chose a 1.5-fold response, which translates to ≥7-fold signal over noise as the minimal threshold required to score an interaction as positive.
HiBiT-GPCR DNA constructs were diluted in 10 mM Tris pH 8 to a final concentration of 0.01 μg/μL, arrayed in 96-well plates and stored at −20 °C. For transfection, HEK293 cells were suspended in Opti-MEM (without phenol red) supplemented with 2% fetal bovine serum (Seradigm) and 100 units/mL penicillin–streptomycin (Gibco) at a final concentration of 220,000 cells/mL and dispensed into white 96-well plates at 90 μL/well. Subsequent transfections and screens were carried using an Agilent Bravo Automated Liquid Handling Platform. First, the 96-well HiBiT DNA arrays were diluted 25-fold in Opti-MEM (without serum or phenol red) to a final concentration of 0.0004 μg/μL and 20 μL of the diluted DNAs were transferred into new 96-well plates. Next, promoterless carrier DNA (1 μg/μL) was diluted 25-fold (0.04 μg/μL) and then dispensed into the diluted arrays at 20 μL/well. Following brief mixing, Viafect transfection reagent (Promega) diluted 16-fold into Opti-MEM was dispensed into the plates at 40 μL/well. After mixing by pipetting, plates were incubated for 10 min on the pipetting station deck. The DNA-transfection reagent complexes were then added to plates containing cells. To facilitate the screen, 10 μL of DNA-transfection reagent complexes were added in duplicates to the top 4 and bottom 4 rows, resulting in two identical 48-well arrays per plate. Plates with transfected cells were incubated for 18–20 h at 37 °C/5% CO2. A screen of each tracer across the entire library using two different concentrations requires duplicate plates of transfected cells. Depending on the number of tracers being screened, transfections can be scaled up using the same ratios. The next day, for each tracer, four 20× screening solutions in tracer dilution buffer (Promega) were prepared: two duplicates at final concentration of 20 μM and two duplicates at a final concentration of 2 μM. […] The four resulting solutions were diluted 4-fold in Opti-MEM without serum or phenol red to generate 5× solutions (5 µM and 0.5 µM tracer +/− 100 μM competing compound). To screen the library, a BioTek MultiFlo FX liquid dispenser was used to dispense 22.5 µL of tracer solution to the top 4 rows and 22.5 µL tracer + competing compound solution to the 4 bottom rows. Plates were briefly mixed on an orbital shaker and incubated for 1.5 h at room temperature. […] Plates were briefly mixed on an orbital shaker and incubated for 15 min to allow complementation.

T1 sequence (P14416 whole entry): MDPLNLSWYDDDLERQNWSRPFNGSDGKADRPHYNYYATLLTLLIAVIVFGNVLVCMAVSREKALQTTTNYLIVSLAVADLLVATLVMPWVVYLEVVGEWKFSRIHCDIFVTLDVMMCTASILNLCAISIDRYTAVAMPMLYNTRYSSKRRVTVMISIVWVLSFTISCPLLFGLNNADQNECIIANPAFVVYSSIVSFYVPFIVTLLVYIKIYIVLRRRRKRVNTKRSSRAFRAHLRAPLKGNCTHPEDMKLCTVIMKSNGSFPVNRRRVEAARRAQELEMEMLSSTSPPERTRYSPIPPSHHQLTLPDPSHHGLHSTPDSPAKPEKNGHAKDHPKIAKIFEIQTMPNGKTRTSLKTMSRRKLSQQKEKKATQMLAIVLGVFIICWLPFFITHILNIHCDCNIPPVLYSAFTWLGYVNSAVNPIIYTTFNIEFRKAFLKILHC

Compound: CN(C)CCC=C1c2ccccc2CCc2ccc(C(=O)NCCNC(=O)CCOCCOCCOCCOCCNC(=O)CCc3ccc4n3[B-](F)(F)[N+]3=C(c5ccc[nH]5)C=CC3=C4)cc21 [Amitriptyline-b-2-NB590]
- NanoBRET Fold Response (tracer at 0.1μM, listed as amitriptyline-b-2-NB590): 1.54

Compound: CCOC(=O)c1cc(C#N)c(N2CCC(C(=O)NS(=O)(=O)Cc3ccccc3/C=C/C(=O)NCCNC(=O)CCc3ccc4n3[B-](F)(F)[N+]3=C(c5ccc[nH]5)C=CC3=C4)CC2)nc1C [AZD1283-1-NB590]
- NanoBRET Fold Response (DRD2, 0.1μM): 1.04
- NanoBRET Fold Response (DRD2, 1μM): 1.08

Compound: CC(C)N(CC[C@H](c1ccccc1)c1cc(CCNC(=O)CCOCCOCCOCCOCCNC(=O)CCc2ccc3n2[B-](F)(F)[N+]2=C(c4ccc[nH]4)C=CC2=C3)ccc1O)C(C)C [Tolterodine-2-NB590]
- NanoBRET Fold Response (DRD2, tracer 0.1μM): 1.07
- NanoBRET Fold Response (DRD2, tracer 1μM): 1.09

Compound: CC(C)N(CC[C@H](c1ccccc1)c1cc(CCNC(=O)c2ccc(CNC(=O)CCc3ccc4n3[B-](F)(F)[N+]3=C(c5ccc[nH]5)C=CC3=C4)cc2)ccc1O)C(C)C [Tolterodine-BZ-NB590]
- NanoBRET Fold Response (DRD2, tracer 0.1μM): 1.34
- NanoBRET Fold Response (DRD2, tracer 1μM): 1.78

Compound: O=C(CCOCCOCCOCCOCCNC(=O)CCc1ccc2n1[B-](F)(F)[N+]1=C(c3ccc[nH]3)C=CC1=C2)NCCCN1CCN(C2=Nc3ccccc3Oc3ccc(Cl)cc32)CC1 [Loxapine-a-2-NB590]
- NanoBRET Fold Response (DRD2, tracer 0.1μM): 1.97
- NanoBRET Fold Response (DRD2, tracer 1μM): 1.62

Compound: CN(C)CCC=C1c2ccccc2CCc2ccc(C(=O)NCCNC(=O)CCOCCOCCOCCOCCNC(=O)CCc3ccc4n3[B-](F)(F)[N+]3=C(c5ccc[nH]5)C=CC3=C4)cc21 [Amitriptyline-a-2-NB590]
- NanoBRET Fold Response (tracer at 0.1μM): 1.50
- NanoBRET Fold Response (tracer at 1μM): 1.97

Compound: Cc1nc2n(c(=O)c1CCN1CCC(c3noc4cc(F)ccc34)CC1)CCCC2OC(=O)NCCOCCOCCOCCOCCNC(=O)CCc1ccc2n1[B-](F)(F)[N+]1=C(c3ccc[nH]3)C=CC1=C2 (centres unmarked) [Risperidone-2-NB590]
- NanoBRET Fold Response (DRD2, tracer 0.1μM): 2.85
- NanoBRET Fold Response (DRD2, tracer 1μM): 2.07

Compound: COc1ccc2[nH]c(-c3ccc(CNC(=O)CCOCCOCCOCCOCCNC(=O)CCc4ccc5n4[B-](F)(F)[N+]4=C(c6ccc[nH]6)C=CC4=C5)cc3)c(CCNC(C)=O)c2n1 [AzomelatoninICO9-2-NB590]
- NanoBRET Fold Response (0.1μM tracer): 1.00
- NanoBRET Fold Response (1μM tracer): 1.03

Compound: COc1ccccc1N1CCN(CCCCN2C(=O)c3ccc(CNC(=O)CCOCCOCCOCCOCCNC(=O)CCc4ccc5n4[B-](F)(F)[N+]4=C(c6ccc[nH]6)C=CC4=C5)cc3C2=O)CC1 [NAN-190-2-NB590]
- NanoBRET Fold Response (DRD2, tracer 0.1μM): 2.31
- NanoBRET Fold Response (DRD2, tracer 1μM): 1.36

Compound: O=C(CCc1ccc2n1[B-](F)(F)[N+]1=C(c3ccc[nH]3)C=CC1=C2)NCCOCCOCCNC(=O)OCCOCCN1CCN(C2=Nc3ccccc3Sc3ccccc32)CC1 [Quetiapine-a-2-NB590]
- NanoBRET Fold Response (DRD2, tracer 0.1μM): 1.86
- NanoBRET Fold Response (DRD2, tracer 1μM): 1.76

Compound: O=C(CCOCCOCCOCCOCCNC(=O)CCc1ccc2n1[B-](F)(F)[N+]1=C(c3ccc[nH]3)C=CC1=C2)NCCCN1CCN(C2=Nc3cc(Cl)ccc3Nc3ccccc32)CC1 [Clozapine-a-2-NB590]
- NanoBRET Fold Response (DRD2, 0.1μM tracer): 2.85
- NanoBRET Fold Response (DRD2, 1μM tracer): 2.37

Compound: N#CN=C(NCCCOc1cccc(CN2CCCCC2)c1)NCCNC(=O)CCOCCOCCOCCOCCNC(=O)CCc1ccc2n1[B-](F)(F)[N+]1=C(c3ccc[nH]3)C=CC1=C2 [Aminopotentidine-2-NB590]
- NanoBRET Fold Response (DRD2, tracer 0.1μM): 1.18
- NanoBRET Fold Response (DRD2, tracer 1μM): 1.22

Compound: O=C(CCc1ccc2n1[B-](F)(F)[N+]1=C(c3ccc[nH]3)C=CC1=C2)NCc1ccc(C(=O)NCCOCCOCCNCC(O)COc2cccc3ccccc23)cc1 (centres unmarked) [Propranolol-3-NB590]
- NanoBRET Fold Response (DRD2, 0.1μM): 1.17
- NanoBRET Fold Response (DRD2, 1μM): 1.09

Compound: O=C(CCc1ccc2n1[B-](F)(F)[N+]1=C(c3ccc[nH]3)C=CC1=C2)NCc1ccc(C(=O)NCCOCCC(=O)N[C@@H]2CC[C@@]3(O)[C@H]4Cc5ccc(O)c6c5[C@@]3(CCN4CC3CC3)[C@H]2O6)cc1 [Naltrexone-3-NB590]
- NanoBRET Fold Response (DRD2, tracer 0.1μM): 0.98
- NanoBRET Fold Response (DRD2, tracer 1μM): 1.36

Compound: COc1ccccc1N1CCN(CCCCN2C(=O)c3ccc(CNC(=O)CCOCCNC(=O)c4ccc(CNC(=O)CCc5ccc6n5[B-](F)(F)[N+]5=C(c7ccc[nH]7)C=CC5=C6)cc4)cc3C2=O)CC1 [NAN-190-3-NB590]
- NanoBRET Fold Response (DRD2, tracer 0.1μM): 1.80
- NanoBRET Fold Response (DRD2, tracer 1μM): 1.21

Compound: Cc1cc2c(s1)Nc1ccccc1N=C2N1CCN(CCCNC(=O)CCOCCOCCOCCOCCNC(=O)CCc2ccc3n2[B-](F)(F)[N+]2=C(c4ccc[nH]4)C=CC2=C3)CC1 [Olanzapine-a-2-NB590]
- NanoBRET Fold Response (DRD2, tracer 0.1μM): 1.98
- NanoBRET Fold Response (DRD2, tracer 1μM): 2.25

Compound: CCCn1c(=O)c2[nH]c(-c3ccc(OCC(=O)NCCNC(=O)CCOCCNC(=O)c4ccc(CNC(=O)CCc5ccc6n5[B-](F)(F)[N+]5=C(c7ccc[nH]7)C=CC5=C6)cc4)cc3)nc2n(CCC)c1=O [XAC-3-NB590]
- NanoBRET Fold Response (DRD2, tracer 0.1μM): 1.17
- NanoBRET Fold Response (DRD2, tracer 1μM): 1.85

Compound: N#CN/C(=N\CCNC(=O)c1ccc(N)cc1)NCCCOc1cccc(CN2CCCCC2)c1 [Aminopotentidine (unmodified)]
- NanoBRET Fold Response (DRD2, other tracers/Aminopotentidine (unmodified), 0.1μM): 1.53
- NanoBRET Fold Response (DRD2, other tracers/Aminopotentidine (unmodified), 1μM): 1.51

Compound: CN(CCC=C1c2ccccc2CCc2ccccc21)C(=O)CCOCCOCCOCCOCCNC(=O)CCc1ccc2n1[B-](F)(F)[N+]1=C(c3ccc[nH]3)C=CC1=C2 [Amitriptyline-e-2-NB590]
- NanoBRET Fold Response (tracer at 1μM): 1.34

Compound: COc1ccc2c(n1)c(CCNC(C)=O)cn2CCNC(=O)CCc1ccc2n1[B-](F)(F)[N+]1=C(c3ccc[nH]3)C=CC1=C2 [Azamelatonin-1-NB590]
- NanoBRET Fold Response (0.1μM tracer): 1.19
- NanoBRET Fold Response (1μM tracer): 0.52
